Source: ChEMBL document CHEMBL5113409, “Design and synthesis of proteolysis targeting chimeras (PROTACs) as an EGFR degrader based on CO-1686” (Eur J Med Chem, 2022)
Active and inactive are the calls of the source. The calls are words filed in the database; no cut-off is given here.

Experiments:
A549 = experiment: Anti-proliferative activity against human A549 cells assessed as reduction in cell proliferation incubated for 72 hrs by MTT assay; format: functional, cell-based; conditions: A549, 72 h
PC-9 = experiment: Anti-proliferative activity against human PC-9 cells assessed as reduction in cell proliferation incubated for 72 hrs by MTT assay; format: functional, cell-based; conditions: PC-9, 72 h
NCI-H1975 [1] = experiment: Anti-proliferative activity against human NCI-H1975 cells assessed as reduction in cell proliferation incubated for 72 hrs by MTT assay; format: functional, cell-based; conditions: NCI-H1975, 72 h
[2] = target: Epidermal growth factor receptor (Homo sapiens, UniProt P00533); experiment: Inhibition of wild type EGFR (unknown origin) incubated for 10 mins by HTRF KinEASE-TK assay
[3] = target: Epidermal growth factor receptor (Homo sapiens, UniProt P00533, L858R/T790M); experiment: Inhibition of EGFR L858R/T790M mutant (unknown origin) incubated for 35 mins by HTRF KinEASE-TK assay
Homo sapiens = organism: Homo sapiens; experiment: Selectivity index, ratio of IC50 for wild type EGFR (unknown origin) to IC50 for Protein cereblon/Epidermal growth factor receptor L858R/T790M mutant
[4] = system: Protein cereblon/Epidermal growth factor receptor (Homo sapiens), P00533+Q96SW2 [L858R,T790M]; experiment: Protac activity at CRBN/EGFR L858R/T790M mutant in human NCI-H1975 cells assessed as L858R/T790M mutant degradation at 3 uM incubated for 48 hrs by Western blot analysis; format: cell-based
[5] = system: Protein cereblon/Epidermal growth factor receptor (Homo sapiens), P00533+Q96SW2 [L858R,T790M]; experiment: (§1) Protac activity at CRBN/EGFR L858R/T790M mutant in human NCI-H1975 cells assessed as L858R/T790M mutant degradation incubated for 48 hrs by Western blot analysis; format: cell-based; conditions: DDE = dose-dependent effect
[6] = target: Protein cereblon/Epidermal growth factor receptor (Homo sapiens, UniProt P00533+Q96SW2, T790M/L858R); experiment: as §1; format: cell-based
[7] = system: Protein cereblon/Epidermal growth factor receptor (Homo sapiens), P00533+Q96SW2 [L858R,T790M]; experiment: Protac activity at CRBN/EGFR L858R/T790M mutant in human NCI-H1975 cells assessed as L858R/T790M mutant degradation at 0.3 uM incubated up to 36 hrs by Western blot analysis; format: cell-based; conditions: TDE = time-dependent effect
[8] = system: Protein cereblon/Epidermal growth factor receptor (Homo sapiens), P00533+Q96SW2 [L858R,T790M]; experiment: Protac activity at CRBN/EGFR L858R/T790M mutant in human NCI-H1975 cells assessed as L858R/T790M mutant degradation incubated for 48 hrs by Western blot analysis relative to untreated control; format: cell-based
NCI-H1975 [9] = experiment: Induction of apoptosis in human NCI-H1975 cells incubated for 48 hrs by Annexin-V/propidium iodide staining based biparametric cytofluorometric assay; format: functional, cell-based; conditions: DDE = dose-dependent effect
NCI-H1975 [10] = experiment: Induction of apoptosis in human NCI-H1975 cells assessed as viable cells level at 0.25 uM incubated for 48 hrs by Annexin-V/propidium iodide staining based biparametric cytofluorometric assay (reference value: 93.9%); format: functional
NCI-H1975 [11] = experiment: Induction of apoptosis in human NCI-H1975 cells assessed as early apoptosis cells level at 0.25 uM incubated for 48 hrs by Annexin-V/propidium iodide staining based biparametric cytofluorometric assay (reference value: 2.26%); format: functional
NCI-H1975 [12] = experiment: Induction of apoptosis in human NCI-H1975 cells assessed as late apoptosis cells level at 0.25 uM incubated for 48 hrs by Annexin-V/propidium iodide staining based biparametric cytofluorometric assay (reference value: 2.46%); format: functional
NCI-H1975 [13] = experiment: Induction of apoptosis in human NCI-H1975 cells assessed as viable cells level at 0.5 uM incubated for 48 hrs by Annexin-V/propidium iodide staining based biparametric cytofluorometric assay (reference value: 93.9%); format: functional
NCI-H1975 [14] = experiment: Induction of apoptosis in human NCI-H1975 cells assessed as early apoptosis cells level at 0.5 uM incubated for 48 hrs by Annexin-V/propidium iodide staining based biparametric cytofluorometric assay (reference value: 2.26%); format: functional
NCI-H1975 [15] = experiment: Induction of apoptosis in human NCI-H1975 cells assessed as late apoptosis cells level at 0.5 uM incubated for 48 hrs by Annexin-V/propidium iodide staining based biparametric cytofluorometric assay (reference value: 2.46%); format: functional
NCI-H1975 [16] = experiment: Induction of apoptosis in human NCI-H1975 cells assessed as necrosis cells level at 0.5 uM incubated for 48 hrs by Annexin-V/propidium iodide staining based biparametric cytofluorometric assay (reference value: 2.46%); format: functional
NCI-H1975 [17] = experiment: Induction of apoptosis in human NCI-H1975 cells assessed as viable cells level at 1 uM incubated for 48 hrs by Annexin-V/propidium iodide staining based biparametric cytofluorometric assay (reference value: 93.9%); format: functional
NCI-H1975 [18] = experiment: Induction of apoptosis in human NCI-H1975 cells assessed as early apoptosis cells level at 1 uM incubated for 48 hrs by Annexin-V/propidium iodide staining based biparametric cytofluorometric assay (reference value: 2.26%); format: functional
NCI-H1975 [19] = experiment: Induction of apoptosis in human NCI-H1975 cells assessed as late apoptosis cells level at 1 uM incubated for 48 hrs by Annexin-V/propidium iodide staining based biparametric cytofluorometric assay (reference value: 2.46%); format: functional
NCI-H1975 [20] = experiment: Induction of apoptosis in human NCI-H1975 cells assessed as necrosis cells level at 1 uM incubated for 48 hrs by Annexin-V/propidium iodide staining based biparametric cytofluorometric assay (reference value: 2.46%); format: functional
NCI-H1975 [21] = experiment: Induction of cell cycle arrest in human NCI-H1975 cells assessed as accumulation at G0/G1 phase at 0.25 uM incubated for 48 hrs by propidium iodide staining based flow cytometry (reference value: 59.18%); format: functional
NCI-H1975 [22] = experiment: Induction of cell cycle arrest in human NCI-H1975 cells assessed as accumulation at G2/M phase at 0.25 uM incubated for 48 hrs by propidium iodide staining based flow cytometry (reference value: 3.68%); format: functional
NCI-H1975 [23] = experiment: Induction of cell cycle arrest in human NCI-H1975 cells assessed as accumulation at S phase at 0.25 uM incubated for 48 hrs by propidium iodide staining based flow cytometry (reference value: 37.13%); format: functional
NCI-H1975 [24] = experiment: Induction of cell cycle arrest in human NCI-H1975 cells assessed as accumulation at G0/G1 phase at 0.5 uM incubated for 48 hrs by propidium iodide staining based flow cytometry (reference value: 59.18%); format: functional
NCI-H1975 [25] = experiment: Induction of cell cycle arrest in human NCI-H1975 cells assessed as accumulation at G2/M phase at 0.5 uM incubated for 48 hrs by propidium iodide staining based flow cytometry (reference value: 3.68%); format: functional
NCI-H1975 [26] = experiment: Induction of cell cycle arrest in human NCI-H1975 cells assessed as accumulation at S phase at 0.5 uM incubated for 48 hrs by propidium iodide staining based flow cytometry (reference value: 37.13%); format: functional
NCI-H1975 [27] = experiment: Induction of cell cycle arrest in human NCI-H1975 cells assessed as accumulation at G0/G1 phase at 1 uM incubated for 48 hrs by propidium iodide staining based flow cytometry (reference value: 59.18%); format: functional
NCI-H1975 [28] = experiment: Induction of cell cycle arrest in human NCI-H1975 cells assessed as accumulation at G2/M phase at 1 uM incubated for 48 hrs by propidium iodide staining based flow cytometry (reference value: 3.68%); format: functional
NCI-H1975 [29] = experiment: Induction of cell cycle arrest in human NCI-H1975 cells assessed as accumulation at S phase at 1 uM incubated for 48 hrs by propidium iodide staining based flow cytometry (reference value: 37.13%); format: functional

C=CC(=O)Nc1cccc(Nc2nc(Nc3ccc(N4CCN(CC(=O)NCCNc5cccc6c5C(=O)N(C5CCC(=O)N(C)C5=O)C6=O)CC4)cc3OC)ncc2C(F)(F)F)c1 (configuration not stated)
IC50 (A549): > 100 µM | IC50 (PC-9): 1.89 µM | IC50 (NCI-H1975 [1]): 4.68 µM | IC50 [2]: 1400 nM | IC50 [3]: 134 nM | Ratio IC50 (Homo sapiens): 11

C=CC(=O)Nc1cccc(Nc2nc(Nc3ccc(N4CCN(CC(=O)NCCNc5cccc6c5CN(C5CCC(=O)NC5=O)C6=O)CC4)cc3OC)ncc2C(F)(F)F)c1 (configuration not stated)
IC50 (A549): 33.3 µM | IC50 (PC-9): 4.86 µM | IC50 (NCI-H1975 [1]): 8.36 µM | IC50 [2]: 2400 nM | IC50 [3]: 965 nM | Ratio IC50 (Homo sapiens): 2.5

C=CC(=O)Nc1cccc(Nc2nc(Nc3ccc(N4CCN(C(=O)CCCCNc5cccc6c5C(=O)N(C5CCC(=O)NC5=O)C6=O)CC4)cc3OC)ncc2C(F)(F)F)c1 (configuration not stated)
Activity [4]: Active | IC50 (A549): > 100 µM | IC50 (PC-9): 6.74 µM | IC50 (NCI-H1975 [1]): 1.09 µM | IC50 [2]: 614 nM | IC50 [3]: 121 nM | Ratio IC50 (Homo sapiens): 5

C=CC(=O)Nc1cccc(Nc2nc(Nc3ccc(N4CCN(C(=O)CCCCCC(=O)Nc5cccc6c5C(=O)N(C5CCC(=O)NC5=O)C6=O)CC4)cc3OC)ncc2C(F)(F)F)c1 (configuration not stated)
Activity [4]: Active | IC50 (A549): 29.8 µM | IC50 (PC-9): 0.9 µM | IC50 (NCI-H1975 [1]): 0.59 µM | IC50 [2]: 648 nM | IC50 [3]: 20.3 nM | Ratio IC50 (Homo sapiens): 32

C=CC(=O)Nc1cccc(Nc2nc(Nc3ccc(N4CCN(CC(=O)NCCNc5cccc6c5C(=O)N(C5CCC(=O)NC5=O)C6=O)CC4)cc3OC)ncc2C(F)(F)F)c1 (configuration not stated)
Activity [4]: Active | Activity [5]: Dde | DC50 [6]: 356 nM | Activity [7]: Tde | Emax [8]: 83% | Activity (NCI-H1975 [9]): Dde | Activity (NCI-H1975 [10]): 89.7% | Activity (NCI-H1975 [11]): 2.78% | Activity (NCI-H1975 [12]): 6.07% | Activity (NCI-H1975 [13]): 73.3% | Activity (NCI-H1975 [14]): 6.16% | Activity (NCI-H1975 [15]): 18.3% | Activity (NCI-H1975 [16]): 2.22% | Activity (NCI-H1975 [17]): 58% | Activity (NCI-H1975 [18]): 6.63% | Activity (NCI-H1975 [19]): 39.9% | Activity (NCI-H1975 [20]): 4.71% | Activity (NCI-H1975 [21]): 72.1% | Activity (NCI-H1975 [22]): 4.01% | Activity (NCI-H1975 [23]): 23.89% | Activity (NCI-H1975 [24]): 73.71% | Activity (NCI-H1975 [25]): 3.72% | Activity (NCI-H1975 [26]): 22.57% | Activity (NCI-H1975 [27]): 77.8% | Activity (NCI-H1975 [28]): 4.8% | Activity (NCI-H1975 [29]): 17.39% | IC50 (A549): > 100 µM | IC50 (PC-9): 0.75 µM | IC50 (NCI-H1975 [1]): 0.24 µM | IC50 [2]: 839 nM | IC50 [3]: 43.1 nM | Ratio IC50 (Homo sapiens): 19

C=CC(=O)Nc1cccc(Nc2nc(Nc3ccc(N4CCN(C(=O)CCCCCCCCCCCC(=O)Nc5cccc6c5C(=O)N(C5CCC(=O)NC5=O)C6=O)CC4)cc3OC)ncc2C(F)(F)F)c1 (configuration not stated)
IC50 (A549): > 100 µM | IC50 (PC-9): 18.1 µM | IC50 (NCI-H1975 [1]): 17.1 µM

C=CC(=O)Nc1cccc(Nc2nc(Nc3ccc(N4CCN(C(=O)CCCC(=O)Nc5cccc6c5C(=O)N(C5CCC(=O)NC5=O)C6=O)CC4)cc3OC)ncc2C(F)(F)F)c1 (configuration not stated)
Activity [4]: Active | IC50 (A549): > 100 µM | IC50 (PC-9): 1.35 µM | IC50 (NCI-H1975 [1]): 0.95 µM | IC50 [2]: 3230 nM | IC50 [3]: 33 nM | Ratio IC50 (Homo sapiens): 98

C=CC(=O)Nc1cccc(Nc2nc(Nc3ccc(N4CCN(CC(=O)NCCCCCCNC(=O)CNc5cccc6c5C(=O)N(C5CCC(=O)NC5=O)C6=O)CC4)cc3OC)ncc2C(F)(F)F)c1 (configuration not stated)
IC50 (A549): > 100 µM | IC50 (PC-9): 6.61 µM | IC50 (NCI-H1975 [1]): 17 µM

C=CC(=O)Nc1cccc(Nc2nc(Nc3ccc(N4CCN(CCOCCNc5cccc6c5C(=O)N(C5CCC(=O)NC5=O)C6=O)CC4)cc3OC)ncc2C(F)(F)F)c1 (configuration not stated)
Activity [4]: Active | IC50 (A549): 36.9 µM | IC50 (PC-9): 0.5 µM | IC50 (NCI-H1975 [1]): 0.22 µM | IC50 [2]: 364 nM | IC50 [3]: 24.1 nM | Ratio IC50 (Homo sapiens): 15

C=CC(=O)Nc1cccc(Nc2nc(Nc3ccc(N4CCN(C(=O)CCCCCCCCCCC(=O)Nc5cccc6c5C(=O)N(C5CCC(=O)NC5=O)C6=O)CC4)cc3OC)ncc2C(F)(F)F)c1 (configuration not stated)
IC50 (A549): > 100 µM | IC50 (PC-9): 8.77 µM | IC50 (NCI-H1975 [1]): 8.55 µM

C=CC(=O)Nc1cccc(Nc2nc(Nc3ccc(N4CCN(C(=O)CCCCC(=O)Nc5cccc6c5C(=O)N(C5CCC(=O)NC5=O)C6=O)CC4)cc3OC)ncc2C(F)(F)F)c1 (configuration not stated)
IC50 (A549): > 100 µM | IC50 (PC-9): 4.62 µM | IC50 (NCI-H1975 [1]): 1.56 µM

C=CC(=O)Nc1cccc(Nc2nc(Nc3ccc(N4CCN(CC(=O)NCCCCNC(=O)CNc5cccc6c5C(=O)N(C5CCC(=O)NC5=O)C6=O)CC4)cc3OC)ncc2C(F)(F)F)c1 (configuration not stated)
IC50 (A549): > 100 µM | IC50 (PC-9): 13.2 µM | IC50 (NCI-H1975 [1]): 11.7 µM
